The text below walks through data of patent publication US20190083573A1, “DESIGNER RECEPTORS FOR […] AND METHODS OF USE THEREOF” (The Board of Trustees of the Leland Stanford Junior …, priority 2016, published 2019).

Experiment [1] deals with T1, hM4D(Gi) (Homo sapiens, UniProt P08173, A203G/Y113C).
T1 construct: HA (N); expressed in transfected cells; host or cells: mouse sciatic-nerve primary afferent nociceptors, transduced in vivo with AAV6 under the hSyn promoter
T1 sequence (P08173 1-479 Y113C/A203G): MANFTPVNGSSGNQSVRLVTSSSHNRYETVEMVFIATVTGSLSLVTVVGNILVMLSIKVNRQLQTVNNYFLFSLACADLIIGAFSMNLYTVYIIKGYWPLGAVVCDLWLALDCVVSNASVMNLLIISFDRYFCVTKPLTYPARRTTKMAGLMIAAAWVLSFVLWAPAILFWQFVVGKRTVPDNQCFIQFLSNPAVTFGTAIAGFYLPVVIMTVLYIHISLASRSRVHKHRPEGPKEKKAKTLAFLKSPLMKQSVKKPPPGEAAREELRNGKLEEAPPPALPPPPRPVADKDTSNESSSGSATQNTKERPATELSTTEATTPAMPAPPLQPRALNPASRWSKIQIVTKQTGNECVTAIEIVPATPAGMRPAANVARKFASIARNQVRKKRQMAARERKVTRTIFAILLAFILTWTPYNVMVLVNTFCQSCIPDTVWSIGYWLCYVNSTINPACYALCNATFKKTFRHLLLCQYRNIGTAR
The experiment is described as follows: Optical withdrawal testing after CNO in hM4D+/ChR2+ mice. Format: in vivo. Conditions: 10 mg/kg CNO i.p., 60 min after administration, n=5 mice. As to the method:
(§1) 6-8 week old mice were anesthetized with 2% isoflurane, the thigh region was cleaned and sterilized, and then the sciatic nerve was exposed. A 35 G needle was inserted into the nerve, and 2-5 μl of AAV6-hSyn-HA-hM4D-IRES-mCitrine was injected into the nerve, at the rate of 1 μl/min. The cavity was then closed, analgesics were administered, and the recovery of the mice was observed. In some experiments, mice were co-injected with 3 μl of AAV6-hSyn-ChR2-YFP, to allow for analysis of chemogenetic inhibition of optogenetically evoked pain response.
In mice that were co-injected with AAV6-hSyn-HA-hM4D-IRES-mCitrine and AAV6-hSyn-ChR2-YFP optical withdrawal testing was performed 2-3 weeks post injection. Mice were placed on a glass surface and allowed to habituate for 30-45 minutes. A 473 nm laser was connected to a fiber optic cable, and used to illuminate the paw regions of the mice at varying light intensities. Mice responded to the blue light with characteristic pain-signs, engaging in paw withdrawal, shaking, and licking. […] This value was termed the ‘optical withdrawal threshold’. Due to variation in the effective illumination spot, the optical withdrawal threshold was measured in total illuminated output (in mW), rather than in mW/mm^2. […] Data were then unblinded, and statistical significance assessed using the Student's t-test.

In experiment [2] the target is T1, hM4D(Gi). Description: Thermal withdrawal testing (Hargreaves) after intraperitoneal CNO in hM4D(Gi) mice. Format: in vivo. Particulars: 10 mg/kg CNO i.p. As to the method:
as §1
(§2) Mice were tested 3-5 weeks after intraneural injection. Mice were placed on a Hargreaves apparatus, and allowed to habituate for 1 hour. Thermal withdrawal latencies were then obtained. Mice were then briefly anesthetized with isoflurane, and injected intra-peritoneally with 100 μl of clozapine-N-oxide (for an effective dose of 10 mg/kg) or 100 μl of saline. Post-injection testing was done in a blinded manner, with thermal withdrawal latencies collected at 45-120 minutes post-injection. Data were then unblinded, and statistical significance assessed using the Student's t-test.

Experiment [3] deals with T1, hM4D(Gi). Description: Mechanical withdrawal testing (von Frey) after intraperitoneal CNO in mice expressing hM4D. Particulars: mice expressing hM4D receptor, 10 mg/kg CNO i.p., 60 min after administration, n=10 paws. The class given is in vivo. As to the method:
as §1
as §2, with “von Frey” for “Hargreaves”, “Mechanical” for “Thermal”, “thresholds” for “latencies”, “obtained using the up-down method of testing.” for “then obtained.”, “mechanical” for “thermal”

A short description of experiment [4]: Effect of other analgesics on the light intensity required for a pain-related response (optical withdrawal testing). Format: in vivo. Particulars: mice, blinded experiments. The procedure: In mice that were co-injected with AAV6-hSyn-HA-hM4D-IRES-mCitrine and AAV6-hSyn-ChR2-YFP optical withdrawal testing was performed 2-3 weeks post injection. Mice were placed on a glass surface and allowed to habituate for 30-45 minutes. A 473 nm laser was connected to a fiber optic cable, and used to illuminate the paw regions of the mice at varying light intensities. Mice responded to the blue light with characteristic pain-signs, engaging in paw withdrawal, shaking, and licking. […] This value was termed the ‘optical withdrawal threshold’. Due to variation in the effective illumination spot, the optical withdrawal threshold was measured in total illuminated output (in mW), rather than in mW/mm^2. Mice were then briefly anesthetized with isoflurane, and injected intra-peritoneally with 100 μl of clozapine-N-oxide (for an effective dose of 10 mg/kg) or 100 μl of saline. Post-injection testing was done in a blinded manner, with optical withdrawal thresholds collected at 60-90 minutes. Data were then unblinded, and statistical significance assessed using the Student's t-test.

In experiment [5] the test system is primary afferents. Conditions: previously reported optogenetic inhibition of primary afferents; cited from earlier work.
Experiment [6] relates to primary afferents. Conditions: previously observed optogenetic inhibition of thermal perception; cited from earlier work.

For `C[N+]1([O-])CCN(C2=Nc3cc(Cl)ccc3Nc3ccccc32)CC1` [CNO, clozapine-N-oxide], on hM4D(Gi) [1], the “effect size, optical withdrawal threshold” value was 1.603 and the “increase in required light intensity to achieve a pain-related response (optical withdrawal threshold)” value is on record as 418%. Also, on hM4D(Gi) [2] (60 minutes post-injection), the “effect size, thermal thresholds” value worked out at 1.903 and the “increase in thermal thresholds” value is 61%. Besides, at hM4D(Gi) [2] (90 minutes post-injection), the “effect size, thermal thresholds” value was determined as 2.2245 and the “increase in thermal thresholds” value amounted to 54%. Moreover, on hM4D(Gi) [3], the “effect size, mechanical withdrawal thresholds” value is on record as 1.3 and the “increase in mechanical withdrawal thresholds” value is given as 45%.

Consider `NCC1(CC(=O)O)CCCCC1` [gabapentin], for which the “effect on optical light sensitivity” value in experiment [4] was “strong effects”.

B1: NpHR: hyperpolarizing light-activatable polypeptide used for optogenetic inhibition (protein, UniProt P15647 1-291, looked up)
Halorhodopsin: MTETLPPVTESAVALQAEVTQRELFEFVLNDPLLASSLYINIALAGLSILLFVFMTRGLDDPRAKLIAVSTILVPVVSIASYTGLASGLTISVLEMPAGHFAEGSSVMLGGEEVDGVVTMWGRYLTWALSTPMILLALGLLAGSNATKLFTAITFDIAMCVTGLAAALTTSSHLMRWFWYAISCACFLVVLYILLVEWAQDAKAAGTADMFNTLKLLTVVMWLGYPIVWALGVEGIAVLPVGVTSWGYSFLDIVAKYIFAFLLLNYLTSNESVVSGSILDVPSASGTPADD
With B1, the “effect size of inhibition, mechanical” value with primary afferents [5] is 0.802. Also, the “effect size of inhibition, thermal perception” value in the experiment on primary afferents [6] is 2.05.
